# Reference: PMC11294390 (Analytical and Bioanalytical Chemistry, 2024)
# Read-outs that look alike come from different tables or passages of the source.
# How the values were obtained:
# HSA [1] = settings: cited from earlier work
# HSA Sudlow site I = biological target: T1, HSA Sudlow site I (Homo sapiens, UniProt P02768); assay: Displacement chromatography (zonal elution) with warfarin as competitor; format: binding; settings: k decreases with rising warfarin, P < 0.05; 1/k vs competitor linear, positive slope
# T1 construct: purchased Chiral Technologies Europe (Daicel Chemical Industries, Ltd., Osaka, Japan)
# T1 sequence (P02768 25-609): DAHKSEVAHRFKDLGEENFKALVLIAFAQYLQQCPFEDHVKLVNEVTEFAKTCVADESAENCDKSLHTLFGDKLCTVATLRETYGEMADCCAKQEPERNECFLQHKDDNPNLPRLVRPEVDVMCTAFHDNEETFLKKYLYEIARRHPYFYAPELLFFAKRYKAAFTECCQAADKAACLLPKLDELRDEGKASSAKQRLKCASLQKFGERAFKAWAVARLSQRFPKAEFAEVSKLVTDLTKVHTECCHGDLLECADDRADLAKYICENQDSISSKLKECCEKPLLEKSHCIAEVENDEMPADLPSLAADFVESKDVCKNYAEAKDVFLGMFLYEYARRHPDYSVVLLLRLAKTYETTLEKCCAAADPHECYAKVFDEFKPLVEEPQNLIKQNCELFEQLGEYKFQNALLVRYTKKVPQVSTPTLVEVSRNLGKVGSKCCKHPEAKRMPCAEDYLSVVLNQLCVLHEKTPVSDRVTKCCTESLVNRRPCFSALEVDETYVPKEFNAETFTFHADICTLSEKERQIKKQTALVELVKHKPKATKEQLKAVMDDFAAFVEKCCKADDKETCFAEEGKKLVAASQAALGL
# HSA [2] = system: HSA; set-up: method as in PMID 24666938; settings: HPAC, immobilized HSA column; cited from earlier work
# bovine serum albumin = settings: spectroscopic technology; cited from earlier work
# human plasma proteins = settings: racemate incubated with plasma, ultrafiltration; cited from earlier work
# [3] = biological target: human serum albumin (HSA) (Homo sapiens, UniProt P02768); settings: for k (retention factor): Chiralpak HSA column, racemates
# Chain of human serum albumin (HSA) (P02768 25-609): as above
# [4] = system: differentiated SH-SY5Y cells; settings: cited from earlier work
# HSA [5] = settings: equilibrium and dynamic dialysis; cited from earlier work
# HSA [6] = settings: value in brackets; cited from earlier work
# HSA [7] = settings: literature-reported; cited from earlier work
# [8] = from k by Eq. 4, 100% potassium phosphate buffer 67 mM pH 7.0, 25 °C
# [9] = 100% potassium phosphate buffer 67 mM pH 7.0, 25 °C
smiles,measurement,setting,value
"CC(CN1c2ccccc2Sc2ccccc21)N(C)C (stereo not shown) [PMZ, promethazine]",Association constant of binding to HSA,HSA [1]; fluorescence and adsorption spectroscopy,1.57 ± 0.20 × 10^4 M^−1
same,Binding site on HSA,HSA [1]; fluorescence spectroscopy,located in site I (subdomain IIA)
same,Competition with warfarin (site I),HSA Sudlow site I,competes with warfarin
same,Association constant of binding to HSA,HSA [2],1.24 ± 0.14 × 10^4 M^−1
same,Binding constant to bovine serum albumin,bovine serum albumin,1.40 ± 0.04 × 10^4 M^−1
same,Enantioselective binding to human plasma proteins,human plasma proteins,evidence of the enantioselective binding
same,Bound fraction (%b) to HSA,[3]; [8],98%
"CNC(C)CN1c2ccccc2Sc2ccccc21 (stereo not shown) [DMPMZ, N-desmonomethyl promethazine]",Cytotoxicity,[4],even more cytotoxic than PMZ
same,Competition with warfarin (site I),HSA Sudlow site I,also compete with warfarin and (S)-ibuprofen
same,k (retention factor),[3]; [9],16.34
"COc1ccc2c3c1O[C@H]1[C@@H](O)C=C[C@H]4[C@@H](C2)N(C)CC[C@@]341 [COD, codeine]",Binding percentage to HSA,HSA [5],about 29%
same,Competition with warfarin (site I),HSA Sudlow site I,competition was also observed for both sites I and II
same,k (retention factor),[3]; [9],1.89
same,Bound fraction (%b) to HSA,[3]; [8],65%
"CC(CN1c2ccccc2[S+]([O-])c2ccccc21)N(C)C (stereo not shown) [PMZSO, promethazine sulphoxide]",Competition with warfarin (site I),HSA Sudlow site I,also compete with warfarin and (S)-ibuprofen
same,k (retention factor),[3]; [9],3.99
same,Bound fraction (%b) to HSA,"[3]; human, 50 µg/mL, pH 7",80%
"Cc1ncc([N+](=O)[O-])n1CCO [Metronidazole, metronidazole]","Bound fraction (%b) to HSA, literature value",HSA [6],20.0%
same,"Bound fraction (%b) to HSA, experimental, controls","[3]; human, pH 7",19.8%
"CN(C)CCCN1c2ccccc2Sc2ccc(Cl)cc21 [Chlorpromazine, chlorpromazine]","Bound fraction (%b) to HSA, literature value",HSA [6],> 90%
same,"Bound fraction (%b) to HSA, experimental, controls","[3]; human, pH 7",98.1%
"CC(=O)CC(c1ccccc1)c1c(O)c2ccccc2oc1=O (stereo not shown) [Warfarin, warfarin]",Affinity constant for HSA,HSA [7],330000 M⁻¹
